Laboratory results reported in article PMC11857530, “Antioxidant Peptides from Miiuy Croaker Swim Bladders: Ameliorating Effect and Mechanism in NAFLD Cell Model through Regulation of Hypolipidemic and Antioxidant Capacity” (Marine Drugs, 2025).
Values belong to the compound of their own block, whether it stands above or below them. Where no end group is shown, it is not given here.

Assays:
[1] = system: OA-induced HepG2 cells; experiment: Intracellular ROS level (DCFH-DA), OA-induced NAFLD cell model; assay type: cell-based, human; details: pretreated, compared to model group; concentration not given
Method: The OA-induced NAFLD cell model was established according to previous methods. HepG2 cells in the logarithmic growth phase were seeded into 96-well plates and cultivated in a humidified atmosphere of 5% CO2 at 37 °C for 24 h. OA was dissolved in 10% BSA and added to the DMEM with a final concentration of 80 μM. After this, the cells were cultured for 24 h, and the morphologies of the HepG2 cells were observed and photographed using a microscope. The HepG2 cells in the control wells were cultured for 24 h in DMEM without OA.
The ROS level was determined by the dichlorodihydrofluorescein diacetate (DCFH-DA) staining method. Briefly, HepG2 cells were seeded in 12-well plates and DCFH-DA was diluted to a final concentration of 10 μM at a ratio of 1:1000. Next, after the removal of the cell culture medium, the cells were washed three times with PBS. After this, the HepG2 cells were incubated with 10 μM DCFH-DA for 30 min at 37 °C. After washing with PBS three times again, the fluorescence of the HepG2 cells was monitored at 485 nm excitation (535 nm emission). Finally, images were acquired using a fluorescence microscope to observe the fluorescence intensity of DCFH-DA.

[2] = target: T1, pancreatic lipase (PL) (Sus scrofa, UniProt P00591); experiment: Pancreatic lipase (PL) inhibitory activity; assay type: biochemical; details: PNPB substrate, 15 min pre-incubation, 20 min, 37 °C; absorbance 405 nm
T1 construct: purchased Solarbio Life Sciences Co., Ltd. (Beijing, China)
T1 sequence (P00591 1-450): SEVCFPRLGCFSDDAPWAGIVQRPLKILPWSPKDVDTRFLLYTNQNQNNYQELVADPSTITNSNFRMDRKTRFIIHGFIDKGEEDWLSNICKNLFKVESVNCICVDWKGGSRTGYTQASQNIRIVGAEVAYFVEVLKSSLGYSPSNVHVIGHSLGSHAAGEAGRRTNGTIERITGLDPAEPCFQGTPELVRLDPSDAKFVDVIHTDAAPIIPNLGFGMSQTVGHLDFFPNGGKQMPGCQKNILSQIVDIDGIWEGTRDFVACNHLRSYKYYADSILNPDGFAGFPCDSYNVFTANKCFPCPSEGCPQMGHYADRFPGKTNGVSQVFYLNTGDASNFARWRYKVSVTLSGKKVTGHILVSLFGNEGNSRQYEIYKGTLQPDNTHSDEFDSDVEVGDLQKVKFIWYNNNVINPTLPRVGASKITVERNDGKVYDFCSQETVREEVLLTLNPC
Method: Sodium taurocholate, pancreatic lipase, cholesterol esterase, and Tris buffer solution were purchased from Solarbio Life Sciences Co., Ltd. (Beijing, China). […] P-nitrophenyl butyrate (PNPB) was purchased from Shanghai Macleans Biochemical Co., Ltd. (Shanghai, China).
The in vitro pancreatic lipase (PL) inhibitory activity was measured using the method of Cai et al. [78], with slight modifications. Pancreatic lipase was first dissolved in 100 mM Tris buffer (2 mg/mL) and the supernatant was obtained by centrifugation. Tris buffer was then prepared as 0.1% (w/v) PNPB solution. The 50 μL peptide sample was incubated with 50 μL Tris buffer solution and 50 μL pancreatic lipase solution at 37 °C for 15 min, and then 100 μL PNPB solution was added. After 20 min at 37 °C, the absorbance value was measured at 405 nm. In the blank group, pure water was used instead of a sample. In the blank control group, the samples were replaced with pure water and the pancreatic lipase solution was replaced with a buffer solution. […] The pancreatic lipase (PL) inhibitory rate was calculated using the following formula:PL inhibitory rate (%) = [1 − (A − A0)/(B − B0)] × 100%(2) where A, A0, B, and B0 are the absorbance values determined at 405 nm of the sample, the sample control, the blank, and the blank control after the reaction, respectively.

[3] = system: PPARα pathway; details: activating PPARα pathway; ref [26],[27]; cited from earlier work
Text: (§1) Bioactive peptides (BPs) have been produced from diverse plant and animal proteins, such as mammals, poultry, beans, mollusks, fish, Antarctic krill, algae, etc. Beyond their important nutritional benefits, BPs show remarkable bioactivity and pharmacological functions, with numerous potential applications for human health. […] For example, GINY and DQW from α-lactalbum ...

[4] = system: AMP-activated protein kinase (AMPK) pathway; details: via AMPK pathway; ref [58],[61]; cited from earlier work
Text: (§2) Modern unhealthy lifestyles, especially a HFD and lack of exercise, lead to the large accumulation of lipids in the human body, and the excess FFAs overloaded in the body are transferred from the bloodstream to the liver. If the rate of lipid oxidation is far slower than the synthesis rate, the large amounts of lipids accumulated in the liver will result in lipid metabolism disorder, steatosis, and ultimately the development of NAFLD [4, 58].

[5] = system: LXRα/SREBPs/HMGR pathway; details: via LXRα/SREBPs/HMGR pathway; ref [59],[60]; cited from earlier work
Text: as §2

[6] = system: liver dysfunction caused by hyperglycemia; details: ref [29]; cited from earlier work
Text: as §1

[7] = system: FFA-damaged HepG2 cells; details: regulating PERK/eIF2α and PERK/IκBα pathways; ref [28]; cited from earlier work
Text: as §1

[8] = system: HepG2 cells; experiment: MTT viability of HepG2 cells; assay type: cell-based, human; details: 100 μM, 24 h
Method: HepG2 human hepatoma cell line was purchased from Shanghai Cell Bank, Chinese Academy of Sciences. HepG2 cells were cultured in DMEM containing […] streptomycin, 50 U/mL penicillin, 2 mM glutamine, and 10% FCS in a humidified atmosphere of 5% CO2 at 37 °C.
The viability of the HepG2 cells was evaluated using the MTT assay via a previous method. In brief, S7 and S10 were dissolved in growth medium to form a peptide solution with a concentration of 200 μM. Then, the peptide solution was added to the growth medium of HepG2 cells with final concentrations of 10, 50, and 100 μM, and the cells were incubated for 24 h with peptide administration. The control group was treated with the growth medium without peptides. SV (1.0 mM) was used as a positive control.

Compound: CC(=O)N[C@@H](CS)C(=O)O [NAC]
ROS fluorescence intensity [1]: showed varying degrees of decrease compared to the model group

IC50 [2]: 1.67 mM
Compound: FSGLR [S7]

IC50 [2]: 1.29 mM
Compound: GIEWA [S10]

Compound: GINY [peptide from α-lactalbumin]
Alleviation of NAFLD [3]: decrease lipid deposition and oxidative stress

Compound: IRWWW [antioxidant peptide from Miichthys miiuy muscle]
TG and TC content [4]: decrease the content of TG and TC

Compound: VFVRN [derived from chickpea protein hydrolysate]
Hypolipidemic activity [5]: strong hypolipidemic activity

Compound: VHVV [A tetrapeptide (VHVV) from soy]
Effect on liver dysfunction [6]: strong preventive effect on liver dysfunction caused by hyperglycemia

Compound: VIAPW [antioxidant peptide from Miichthys miiuy muscle]
TG and TC content [4]: decrease the content of TG and TC

Compound: VLATSGPG [VLATSGPG (VLA), peptide from salmon skins]
Lipid content and inflammation [7]: decrease the lipid content and inflammation

Compound: VPDDD [S9, antioxidant peptide separated from swim bladder hydrolysate of the miiuy croaker]
Viability of HepG2 cells vs control [8]: remarkably lower than that of the control (p < 0.05)
